According to patent publication US11884676B2, “Substituted pyrimido[1,2-b]pyridazines as positive allosteric modulators of the muscarinic acetylcholine receptor M4” (Vanderbilt University, priority 2020, dated 2024):

Molecular target: T1, Human M4 (Homo sapiens, UniProt P08173)
T1 construct: expressed in transfected cells
T1 sequence (P08173 1-479): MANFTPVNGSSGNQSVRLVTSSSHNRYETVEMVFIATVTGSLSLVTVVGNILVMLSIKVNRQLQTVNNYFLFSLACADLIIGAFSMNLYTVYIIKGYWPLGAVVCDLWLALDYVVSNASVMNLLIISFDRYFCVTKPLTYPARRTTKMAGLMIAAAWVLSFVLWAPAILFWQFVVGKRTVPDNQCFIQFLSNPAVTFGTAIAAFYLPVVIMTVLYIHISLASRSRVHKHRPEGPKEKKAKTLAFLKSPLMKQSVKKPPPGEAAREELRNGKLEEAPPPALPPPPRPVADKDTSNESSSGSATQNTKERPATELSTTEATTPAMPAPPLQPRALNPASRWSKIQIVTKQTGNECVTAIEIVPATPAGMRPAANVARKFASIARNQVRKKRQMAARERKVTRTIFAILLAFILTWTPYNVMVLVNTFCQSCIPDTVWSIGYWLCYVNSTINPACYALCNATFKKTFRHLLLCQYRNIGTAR
Test: mAChR M4 cell-based functional assay (calcium flux, PAM mode)
Parameters: Emax: dose or concentration left out as unconfirmed
Conditions: for Emax at 30 µM: CHO-K1, % ACh maximum at 30 μM; for Emax at 30 µM / EC50: hM4-Gqi5 CHO-K1 cells; for EC50: concentration-dependent increase in the EC20 acetylcholine response
How it was run: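 CHO-K1 cells stably co-expressing human M4 and chimeric Gqi5, Fluo-4 loaded; compound added first (11-point, 1:3 CRC), then EC20 acetylcholine at 144 s and EC80 at 230 s. PAM activity read on FDSS as concentration-dependent increase of EC20 ACh calcium response; EC50 and Emax from four-parameter logistic fit.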

SMILES | Emax at 30 µM [%] | EC50 [nM] | Emax (CHO-K1, read-out: Human M4 Emax (%)*) [%]
Cc1cc2nccc(=O)n2nc1N1CC[C@@H](Oc2ccc3c(c2)OCCO3)C[C@H]1C [Compound 116, 7-((2R,4R)-4-((2,3-dihydrobenzo[b][1,4]dioxin-6-yl)oxy)-2-methylpiperidin-1-yl)-8-methyl-4H-pyrimido[1,2-b]pyridazin-4-one] | 71 | 1330 | –
[2H]C1([2H])Oc2ccc(O[C@H]3CCN(c4nn5c(=O)ccnc5c(C)c4C)C[C@@H]3F)cc2OC1([2H])[2H] [Compound 117, 7-((3S,4S)-4-((2,3-dihydrobenzo[b][1,4]dioxin-6-yl-2,2,3,3-d4)oxy)-3-fluoropiperidin-1-yl)-8,9-dimethyl-4H-pyrimido[1,2-b]pyridazin-4-one] | 93 | 326 | –
[2H]C1([2H])Oc2ccc(O[C@H]3CCN(c4nn5c(=O)cc(COC)nc5c(C)c4C)C[C@@H]3F)cc2OC1([2H])[2H] [Compound 120, 7-((3S,4S)-4-((2,3-dihydrobenzo[b][1,4]dioxin-6-yl-2,2,3,3-d4)oxy)-3-fluoropiperidin-1-yl)-2-(methoxymethyl)-8,9-dimethyl-4H-pyrimido[1,2-b]pyridazin-4-one] | 106 | 162 | –
CNc1c(C)c(N2CCC(Oc3ccc4c(c3)OCCO4)CC2)nn2c(=O)ccnc12 [Compound 123, 7-(4-((2,3-dihydrobenzo[b][1,4]dioxin-6-yl)oxy)piperidin-1-yl)-8-methyl-9-(methylamino)-4H-pyrimido[1,2-b]pyridazin-4-one] | 89 | 556 | –
[2H]C1([2H])Oc2ccc(O[C@@H]3CCN(c4nn5c(=O)cc(COC)nc5c(C)c4C)C[C@H]3F)cc2OC1([2H])[2H] [Compound 124, 7-((3R,4R)-4-((2,3-dihydrobenzo[b][1,4]dioxin-6-yl-2,2,3,3-d4)oxy)-3-fluoropiperidin-1-yl)-2-(methoxymethyl)-8,9-dimethyl-4H-pyrimido[1,2-b]pyridazin-4-one] | 109 | 101 | –
COc1c(C)c(N2CCC(Oc3ccc4c(c3)OCCO4)CC2)nn2c(=O)ccnc12 [Compound 126, 7-(4-((2,3-Dihydrobenzo[b][1,4]dioxin-6-yl)oxy)piperidin-1-yl)-9-methoxy-8-methyl-4H-pyrimido[1,2-b]pyridazin-4-one] | 109 | 421 | –
Cc1c(N2CCC(Oc3ccc4c(c3)OCCO4)CC2)nn2c(=O)ccnc2c1N1CCC1 [Compound 127, 9-(Azetidin-1-yl)-7-(4-((2,3-dihydrobenzo[b][1,4]dioxin-6-yl)oxy)piperidin-1-yl)-8-methyl-4H-pyrimido[1,2-b]pyridazin-4-one] | – | 1600 | 58
[2H]C1([2H])Oc2cc(O[C@H]3CCN(c4nn5c(=O)ccnc5cc4C)[C@H](C)C3)cc(F)c2OC1([2H])[2H] [Compound 130, 7-((2R,4S)-4-((8-fluoro-2,3-dihydrobenzo[b][1,4]dioxin-6-yl-2,2,3,3-d4)oxy)-2-methylpiperidin-1-yl)-8-methyl-4H-pyrimido[1,2-b]pyridazin-4-one] | 116 | 160 | –
Cc1cc2nccc(=O)n2nc1N1CC[C@H](Oc2cc(F)c3c(c2)OCCO3)C[C@H]1C [Compound 131, 7-((2R,4S)-4-((8-fluoro-2,3-dihydrobenzo[b][1,4]dioxin-6-yl)oxy)-2-methylpiperidin-1-yl)-8-methyl-4H-pyrimido[1,2-b]pyridazin-4-one] | 119 | 203 | –
[2H]C1([2H])Oc2ccc(O[C@H]3CCN(c4nn5c(=O)cc(COC)nc5c(C)c4C)[C@H](C)C3)cc2OC1([2H])[2H] [Compound 133, 7-((2R,4S)-4-((2,3-dihydrobenzo[b][1,4]dioxin-6-yl-2,2,3,3-d4)oxy)-2-methylpiperidin-1-yl)-2-(methoxymethyl)-8,9-dimethyl-4H-pyrimido[1,2-b]pyridazin-4-one] | 105 | 96 | –

Continued, in another order:

Emax at 30 µM [%] | EC50 [nM] | SMILES | Emax (CHO-K1, read-out: Human M4 Emax (%)*) [%]
97 | 19 | [2H]C1(Oc2ccc3c(c2)OC([2H])([2H])C([2H])([2H])O3)CCN(c2nn3c(=O)cc(COC)nc3cc2C)CC1 [Compound 109, 7-(4-((2,3-dihydrobenzo[b][1,4]dioxin-6-yl-2,2,3,3-d4)oxy)piperidin-1-yl-4-d)-2-(methoxymethyl)-8-methyl-4H-pyrimido[1,2-b]pyridazin-4-one] | –
80 | 44 | [2H]C1(Oc2ccc3c(c2)OC([2H])([2H])C([2H])([2H])O3)CCN(c2nn3c(=O)cc(COC)nc3c(C)c2C)CC1 [Compound 110, 7-(4-((2,3-dihydrobenzo[b][1,4]dioxin-6-yl-2,2,3,3-d4)oxy)piperidin-1-yl-4-d)-2-(methoxymethyl)-8,9-dimethyl-4H-pyrimido[1,2-b]pyridazin-4-one] | –
106 | 67 | [2H]C1([2H])Oc2ccc(O[C@@H]3CCN(c4nn5c(=O)ccnc5cc4C)C[C@@H]3F)cc2OC1([2H])[2H] [Compound 111, 7-((3S,4R)-4-((2,3-dihydrobenzo[b][1,4]dioxin-6-yl-2,2,3,3-d4)oxy)-3-fluoropiperidin-1-yl)-8-methyl-4H-pyrimido[1,2-b]pyridazin-4-one] | –
108 | 75 | [2H]C1([2H])Oc2ccc(O[C@H]3CCN(c4nn5c(=O)ccnc5cc4C)C[C@H]3F)cc2OC1([2H])[2H] [Compound 112, 7-((3R,4S)-4-((2,3-dihydrobenzo[b][1,4]dioxin-6-yl-2,2,3,3-d4)oxy)-3-fluoropiperidin-1-yl)-8-methyl-4H-pyrimido[1,2-b]pyridazin-4-one] | –
115 | 34 | [2H]C1([2H])Oc2ccc(O[C@@H]3CCN(c4nn5c(=O)ccnc5c(C)c4C)C[C@@H]3F)cc2OC1([2H])[2H] [Compound 118, 7-((3S,4R)-4-((2,3-dihydrobenzo[b][1,4]dioxin-6-yl-2,2,3,3-d4)oxy)-3-fluoropiperidin-1-yl)-8,9-dimethyl-4H-pyrimido[1,2-b]pyridazin-4-one] | –
114 | 51 | [2H]C1([2H])Oc2ccc(O[C@H]3CCN(c4nn5c(=O)ccnc5c(C)c4C)C[C@H]3F)cc2OC1([2H])[2H] [Compound 119, 7-((3R,4S)-4-((2,3-dihydrobenzo[b][1,4]dioxin-6-yl-2,2,3,3-d4)oxy)-3-fluoropiperidin-1-yl)-8,9-dimethyl-4H-pyrimido[1,2-b]pyridazin-4-one] | –
111 | 42 | [2H]C1([2H])Oc2ccc(O[C@@H]3CCN(c4nn5c(=O)cc(COC)nc5c(C)c4C)C[C@@H]3F)cc2OC1([2H])[2H] [Compound 121, 7-((3S,4R)-4-((2,3-dihydrobenzo[b][1,4]dioxin-6-yl-2,2,3,3-d4)oxy)-3-fluoropiperidin-1-yl)-2-(methoxymethyl)-8,9-dimethyl-4H-pyrimido[1,2-b]pyridazin-4-one] | –
111 | 94 | [2H]C1([2H])Oc2ccc(O[C@H]3CCN(c4nn5c(=O)cc(COC)nc5c(C)c4C)C[C@H]3F)cc2OC1([2H])[2H] [Compound 122, 7-((3R,4S)-4-((2,3-dihydrobenzo[b][1,4]dioxin-6-yl-2,2,3,3-d4)oxy)-3-fluoropiperidin-1-yl)-2-(methoxymethyl)-8,9-dimethyl-4H-pyrimido[1,2-b]pyridazin-4-one] | –
108 | 87 | [2H]C1([2H])Oc2ccc(O[C@@H]3CCN(c4nn5c(=O)cc(COC)nc5cc4C)C[C@H]3F)cc2OC1([2H])[2H] [Compound 125, 7-((3R,4R)-4-((2,3-dihydrobenzo[b][1,4]dioxin-6-yl-2,2,3,3-d4)oxy)-3-fluoropiperidin-1-yl)-2-(methoxymethyl)-8-methyl-4H-pyrimido[1,2-b]pyridazin-4-one] | –
125 | 53 | [2H]C1([2H])Oc2ccc(O[C@@H]3CCN(c4nn5c(=O)ccnc5c(C)c4C)C[C@H]3F)cc2OC1([2H])[2H] [Compound 128, 7-((3R,4R)-4-((2,3-dihydrobenzo[b][1,4]dioxin-6-yl-2,2,3,3-d4)oxy)-3-fluoropiperidin-1-yl)-8,9-dimethyl-4H-pyrimido[1,2-b]pyridazin-4-one] | –
120 | 81 | [2H]C1([2H])Oc2ccc(O[C@H]3CCN(c4nn5c(=O)ccnc5cc4C)[C@H](C)C3)cc2OC1([2H])[2H] [Compound 129, 7-((2R,4S)-4-((2,3-Dihydrobenzo[b][1,4]dioxin-6-yl-2,2,3,3-d4)oxy)-2-methylpiperidin-1-yl)-8-methyl-4H-pyrimido[1,2-b]pyridazin-4-one] | –
107 | 34 | [2H]C1([2H])Oc2ccc(O[C@H]3CCN(c4nn5c(=O)ccnc5c(C)c4C)[C@H](C)C3)cc2OC1([2H])[2H] [Compound 132, 7-((2R,4S)-4-((2,3-dihydrobenzo[b][1,4]dioxin-6-yl-2,2,3,3-d4)oxy)-2-methylpiperidin-1-yl)-8,9-dimethyl-4H-pyrimido[1,2-b]pyridazin-4-one] | –
105 | 25 | Cc1c(N2CC[C@H](Oc3ccc4c(c3)OCCO4)C[C@H]2C)nn2c(=O)ccnc2c1C [Compound 134, 7-((2R,4S)-4-((2,3-dihydrobenzo[b][1,4]dioxin-6-yl)oxy)-2-methylpiperidin-1-yl)-8,9-dimethyl-4H-pyrimido[1,2-b]pyridazin-4-one] | –
